Experimental data published in article PMC5433425 (PeerJ, 2017).
“And” between values parts separate entries of the source, which are not always exact repeats. Identical values can stand only once. Peptide text beside a SMILES is read from it. * marks the point of attachment. βNA = c1ccc2cc(N*)ccc2c1

Key:
[1] = Cytotoxicity, AlamarBlue method; assay type: cell-based, human; conditions: human, human monocyte-derived macrophages, three days of exposure, AlamarBlue
Protocol: (§1) The blood was collected from healthy donors and the peripheral blood mononuclear cells were isolated by Ficoll-Paque Plus (GE Healthcare, Freiburg, Germany) density gradient centrifugation as previously described ([Machado et al., 2016]). […] Fresh medium was added at day 4 post isolation. The effect of the compounds on human monocyte-derived macrophages was evaluated using the AlamarBlue method (Molecular Probes, Life Technologies) ([O’Brien et al., 2000]), and by measuring the release of the lactate dehydrogenase (LDH) into the culture supernatants using the Pierce LDH Cytotoxicity Assay (ThermoFisher Scientific, Waltham, MA, USA) ([Chan, Moriwaki & Rosa, 2013]) according to the manufacturer’s instructions. Briefly, 5 × 10^4 cells were seeded in 96-well microplates treated with the compounds, and incubated at 37 °C with 5% CO2. After 72 h of treatment, the cell viability was assessed. For the AlamarBlue method, the dye was added to each well to a final concentration of 10% and incubated overnight at 37 °C and 5% CO2. The fluorescence was measured with a 540/35 excitation filter and a 590/20 emission filter in a Synergy HT multi-mode microplate reader. The release of LDH from damaged cells into culture supernatants, as an indicator of cytotoxicity, was measured in serum-free medium. Here the amount of enzyme activity correlates to the number of damaged cells. The specific lysis was calculated as follows: (treated cells—spontaneous LDH release)/ (maximum LDH release—spontaneous LDH release) ×100.

[2] = tested on: human monocyte-derived macrophages; experiment: Cytotoxicity, AlamarBlue method; assay type: cell-based; conditions: for AlamarBlue fluorescence 530/25,590/35 (raw well reading): 72 h, listed as PAN
Protocol: as §1

[3] = tested on: human monocyte-derived macrophages; experiment: Cytotoxicity, LDH release; assay type: cell-based; conditions: raw well reading, listed as PAN
Protocol: as §1

[4] = concentration 10 (unit not given)
[5] = concentration 20 (unit not given)
[6] = concentration 40 (unit not given)
[7] = concentration 80 (unit not given)
[8] = concentration 160 (unit not given)
[9] = concentration 320 (unit not given)
[10] = concentration 640 (unit not given)
[11] = concentration 1280 (unit not given)
[12] = concentration 2560 (unit not given)

## N=C(N)NCCC[C@H](NC(=O)[C@@H](N)Cc1ccccc1)C(=O)Nc1ccc2ccccc2c1 [PAβN] (H-Phe-Arg-βNA)
[1]; read-out: CC50
  CC50 at 3 days: 1270 µM
[1]; read-out: CC90
  CC90 at 3 days: 3600 µM
[2]; 10 uM
  AlamarBlue fluorescence 530/25,590/35 (raw well reading): 5144 and 4515 and 5435
[2]; 20 uM
  AlamarBlue fluorescence 530/25,590/35 (raw well reading): 4321 and 4369 and 4263
[2]; 40 uM
  AlamarBlue fluorescence 530/25,590/35 (raw well reading): 4438 and 4039 and 4264
[2]; 80 uM
  AlamarBlue fluorescence 530/25,590/35 (raw well reading): 3781 and 3772 and 3994
[2]; 160 uM
  AlamarBlue fluorescence 530/25,590/35 (raw well reading): 3584 and 4033 and 3977
[2]; 320 uM
  AlamarBlue fluorescence 530/25,590/35 (raw well reading): 3356 and 3644 and 3382
[2]; 640 uM
  AlamarBlue fluorescence 530/25,590/35 (raw well reading): 3650 and 3381 and 3133
[2]; 1280 uM
  AlamarBlue fluorescence 530/25,590/35 (raw well reading): 2305 and 2619 and 2474
[2]; three days of exposure, AlamarBlue
  CC10: 447.71 µM
[3]; [4]
  Pierce LDH absorbance 490: 0.218 and 0.187 and 0.203
  Pierce LDH absorbance 630: 0.102 and 0.108 and 0.118
[3]; [5]
  Pierce LDH absorbance 490: 0.185 and 0.182
  Pierce LDH absorbance 630: 0.094 and 0.098 and 0.113
[3]; [6]
  Pierce LDH absorbance 490: 0.213 and 0.202 and 0.198
  Pierce LDH absorbance 630: 0.106 and 0.115 and 0.108
[3]; [7]
  Pierce LDH absorbance 490: 0.221 and 0.196 and 0.201
  Pierce LDH absorbance 630: 0.11 and 0.102 and 0.112
[3]; [8]
  Pierce LDH absorbance 490: 0.25 and 0.23 and 0.207
  Pierce LDH absorbance 630: 0.098 and 0.096 and 0.105
[3]; [9]
  Pierce LDH absorbance 490: 0.226 and 0.222 and 0.196
  Pierce LDH absorbance 630: 0.099 and 0.109 and 0.1
[3]; [10]
  Pierce LDH absorbance 490: 0.201 and 0.208 and 0.215
  Pierce LDH absorbance 630: 0.096 and 0.11 and 0.112
[3]; [11]
  Pierce LDH absorbance 490: 0.434 and 0.517 and 0.508
  Pierce LDH absorbance 630: 0.175 and 0.213 and 0.218
[3]; [12]
  Pierce LDH absorbance 490: 0.612 and 0.538 and 0.513
  Pierce LDH absorbance 630: 0.334 and 0.228 and 0.206
